Laboratory results taken from US8183262B2, “Pyridine derivatives as mGluR2 antagonists” (Hoffmann-La Roche Inc., priority 2007, dated 2012).

How the values were obtained:
rat mGlu2 receptor = target: T1, rat mGlu2 receptor (Rattus norvegicus, UniProt P31421); experiment: [3H]-LY354740 binding on mGlu2 transfected CHO cell membranes; conditions: inhibition of 10 nM [3H]-LY354740 binding, membranes of CHO cells transfected with rat mGlu2, room temperature, 1 hour
T1 construct: expressed in transfected cells; membranes prepared
T1 sequence (P31421 19-872): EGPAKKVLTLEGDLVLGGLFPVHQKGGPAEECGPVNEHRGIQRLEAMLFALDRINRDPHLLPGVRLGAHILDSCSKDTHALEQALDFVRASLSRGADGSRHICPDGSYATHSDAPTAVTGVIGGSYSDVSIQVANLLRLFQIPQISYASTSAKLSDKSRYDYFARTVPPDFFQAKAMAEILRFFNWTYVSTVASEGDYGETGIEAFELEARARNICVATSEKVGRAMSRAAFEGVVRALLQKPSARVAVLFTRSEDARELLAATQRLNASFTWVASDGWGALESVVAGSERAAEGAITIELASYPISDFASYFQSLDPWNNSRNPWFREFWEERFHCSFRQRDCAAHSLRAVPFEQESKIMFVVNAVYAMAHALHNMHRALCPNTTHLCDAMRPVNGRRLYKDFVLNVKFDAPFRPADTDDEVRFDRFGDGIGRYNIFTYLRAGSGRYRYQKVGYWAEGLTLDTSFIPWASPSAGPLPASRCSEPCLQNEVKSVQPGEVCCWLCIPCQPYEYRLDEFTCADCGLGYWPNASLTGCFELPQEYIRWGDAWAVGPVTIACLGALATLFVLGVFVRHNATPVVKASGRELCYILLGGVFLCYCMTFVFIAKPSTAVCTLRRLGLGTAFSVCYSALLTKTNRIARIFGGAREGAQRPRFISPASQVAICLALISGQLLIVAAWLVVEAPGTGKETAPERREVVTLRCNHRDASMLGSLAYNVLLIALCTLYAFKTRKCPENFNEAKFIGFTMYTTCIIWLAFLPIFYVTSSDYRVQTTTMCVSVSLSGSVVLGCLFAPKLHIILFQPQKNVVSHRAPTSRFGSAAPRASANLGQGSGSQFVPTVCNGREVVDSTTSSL
Excerpt: [^3H]-LY354740 Binding on mGlu2 Transfected CHO Cell Membranes. Transfection and Cell Culture
cDNA encoding the rat mGlu2 receptor protein in pBluescript II was subcloned into the eukaryotic expression vector pcDNA I-amp from Invitrogen Ltd (Paisley, UK). This vector construct (pcD1mGR2) was co-transfected with a psvNeo plasmid encoding the gene for neomycin resistance, into CHO cells by a modified calcium phosphate method described by Chen & Okayama (1988). The cells were maintained in Dulbecco's Modified Eagle medium with reduced L-glutamine (1 mM final concentration), 36 mg/L L-Proline and 10% dialysed foetal calf serum from Gibco-Invitrogen; the medium was supplemented with 500 microM α-methyl-4-carboxyphenylglycine (MCPG). Selection was made in the presence of G-418 (300 ug/ml final concentration). Clones were identified by reverse transcription of 5 μg total RNA, followed by PCR using mGlu2 receptor specific primers 5′-[…]-3′ and 5′-[…]-3′ in 60 mM Tris HCl (pH 10), 15 mM (NH4)2SO4, 2 mM MgCl2, 25 units/ml Taq Polymerase with 30 cycles annealing at 60° C. for 1 min., extention at 72° C. for 30 s, and 1 min. 95° C. denaturation.
Cells, cultured as above, were harvested and washed three times with cold PBS and frozen at −80° C. The pellet was resuspended in cold 20 mM HEPES-NaOH buffer containing 10 mM EDTA (pH 7.4), and homogenised with a polytron (Kinematica, A G, Littau, Switzerland) for 10 s at 10 000 rpm. After centrifugation for 30 min. at 4° C., the pellet was washed once with cold 20 mM HEPES-NaOH buffer containing 0.1 mM EDTA, (pH 7.4). After a second centrifugation for 30 min. at 4° C. the pellet was resuspended in cold 20 mM HEPES-NaOH buffer containing 0.1 mM EDTA, (pH 7.4). Protein content was measured using the Micro BCA method from Pierce-Perbio (Rockford, Ill., USA) using bovine serum albumin as standard.
After thawing, the membranes were resuspended in cold 50 mM Tris-HCl buffer containing 2 mM MgCl2 (pH 7.4) (binding buffer). The final concentration of the membranes in the assays was 25 μg protein/ml. Inhibition experiments were performed with membranes incubated with 10 nM [^3H]-LY354740 at room temperature, for 1 hour, in presence of various concentrations of the compound to be tested. Following the incubations, membranes were filtered onto Whatmann GF/B glass fiber filters or onto GF/B Unifilter plates and washed 5 times with cold binding buffer. Non specific binding was measured in the presence of 10 μM (2S,2′R,3′R)-2-(2′3′-Dicarboxycyclopropyl)glycine (DCG IV from Tocris, Ellisville, Mo. USA). After transfer of the filters into plastic vials containing 10 ml of Ultima-gold scintillation fluid from Perkin-Elmer (Boston, Mass., USA), the radioactivity was measured by liquid scintillation in a Tri-Carb 2500 TR counter (Packard, Zürich, Switzerland). For 96-Unifilter plates the radioactivity was measured after addition of Microscint 40 scintillation fluid (Perkin Elmer, Boston Mass.) using a TopCount NXT (Packard)
The inhibition curves were fitted with a four parameter logistic equation giving IC50 values, and Hill coefficients.

FC(F)(F)c1cc(-c2ccc(Cl)cc2)nc(-n2ccnc2)n1 [Example 1, 4-(4-Chloro-phenyl)-2-imidazol-1-yl-6-trifluoromethyl-pyrimidine]
Ki (rat mGlu2 receptor): 74 nM
melting point: 175 °C

NS(=O)(=O)c1cccc(-c2nc(-c3nc(-c4ccc(Cl)cc4)cc(C(F)(F)F)n3)no2)c1 [Example 2, 3-{3-[4-(4-Chloro-phenyl)-6-trifluoromethyl-pyrimidin-2-yl]-[1,2,4]oxadiazol-5-yl}-benzenesulfonamide]
Ki (rat mGlu2 receptor): 28 nM
melting point: 273 °C

FC(F)(F)c1ccc(-c2cc(C(F)(F)F)nc(-n3ccnc3)n2)cc1 [Example 3, 2-Imidazol-1-yl-4-trifluoromethyl-6-(4-trifluoromethyl-phenyl)-pyrimidine]
Ki (rat mGlu2 receptor): 72 nM
melting point: 162 °C

FC(F)(F)c1ccc(-c2cc(C(F)(F)F)nc(-n3cnc(-c4cccnc4)c3)n2)cc1 [Example 5, 2-(4-Pyridin-3-yl-imidazol-1-yl)-4-trifluoromethyl-6-(4-trifluoromethyl-phenyl)-pyrimidine]
Ki (rat mGlu2 receptor): 47 nM
melting point: 200.5 °C

Nc1cc(-c2noc(-c3nc(-c4ccc(Cl)cc4)cc(C(F)(F)F)n3)n2)ccn1 [Example 8, 4-{5-[4-(4-Chloro-phenyl)-6-trifluoromethyl-pyrimidin-2-yl]-[1,2,4]oxadiazol-3-yl}-pyridin-2-ylamine]
Ki (rat mGlu2 receptor): 100 nM
melting point: 223.5 °C

NS(=O)(=O)c1cccc(-c2nc(-c3nc(-c4ccc(C(F)(F)F)cc4)cc(C(F)(F)F)n3)no2)c1 [Example 10, 3-{3-[4-Trifluoromethyl-6-(4-trifluoromethyl-phenyl)-pyrimidin-2-yl]-[1,2,4]oxadiazol-5-yl}-benzenesulfonamide]
Ki (rat mGlu2 receptor): 25 nM
melting point: 205 °C

Nc1ccc(-c2noc(-c3nc(-c4ccc(C(F)(F)F)cc4)cc(C(F)(F)F)n3)n2)cn1 [Example 11, 5-{5-[4-Trifluoromethyl-6-(4-trifluoromethyl-phenyl)-pyrimidin-2-yl]-[1,2,4]oxadiazol-3-yl}-pyridin-2-ylamine]
Ki (rat mGlu2 receptor): 21.6 nM
melting point: 218.5 °C

Nc1ccc(-c2cccc(-c3nc(-c4ccc(C(F)(F)F)cc4)cc(C(F)(F)F)n3)c2)cn1 [Example 26, 5-{3-[4-Trifluoromethyl-6-(4-trifluoromethyl-phenyl)-pyrimidin-2-yl]-phenyl}-pyridin-2-ylamine]
Ki (rat mGlu2 receptor): 14 nM
melting point: 205 °C

FC(F)(F)c1ccc(-c2cc(C(F)(F)F)nc(-c3cccc(-c4cccnc4)c3)n2)cc1 [Example 33, 2-(3-Pyridin-3-yl-phenyl)-4-trifluoromethyl-6-(4-trifluoromethyl-phenyl)-pyrimidine]
Ki (rat mGlu2 receptor): 17 nM
melting point: 194 °C

FC(F)(F)c1cc(-c2ccc(Cl)cc2)nc(-c2cccc(-c3cccnc3)c2)n1 [Example 34, 4-(4-Chloro-phenyl)-2-(3-pyridin-3-yl-phenyl)-6-trifluoromethyl-pyrimidine]
Ki (rat mGlu2 receptor): 47 nM
melting point: 162 °C

NS(=O)(=O)c1ccc(-c2noc(-c3nc(-c4ccc(C(F)(F)F)cc4)cc(C(F)F)n3)n2)cc1 [Example 35, 4-{5-[4-Difluoromethyl-6-(4-trifluoromethyl-phenyl)-pyrimidin-2-yl]-[1,2,4]oxadiazol-3-yl}-benzenesulfonamide]
Ki (rat mGlu2 receptor): 31 nM
melting point: 307 °C

FC(F)(F)c1ccc(-c2cc(C(F)(F)F)nc(-c3ccncc3)n2)cc1 [Example 39, 2-Pyridin-4-yl-4-trifluoromethyl-6-(4-trifluoromethyl-phenyl)-pyrimidine]
Ki (rat mGlu2 receptor): 39.5 nM
melting point: 153.5 °C

Cc1cc(-c2cccc(-c3nc(-c4ccc(C(F)(F)F)cc4)cc(C(F)(F)F)n3)c2)cc(C)n1 [Example 42, 2-[3-(2,6-Dimethyl-pyridin-4-yl)-phenyl]-4-trifluoromethyl-6-(4-trifluoromethyl-phenyl)-pyrimidine]
Ki (rat mGlu2 receptor): 140 nM
melting point: 159 °C

Nc1ccc(-c2cn(-c3cc(-c4ccc(C(F)(F)F)cc4)cc(C4CC4)n3)cn2)cn1 [Example 54, 5-{1-[6-Cyclopropyl-4-(4-trifluoromethyl-phenyl)-pyridin-2-yl]-1H-imidazol-4-yl}-pyridin-2-ylamine]
Ki (rat mGlu2 receptor): 60 nM
melting point: 233 to 235 °C

Cc1cc(-c2ccc(C(F)(F)F)cc2)cc(-n2ccnc2)n1 [Example 55, 2-Imidazol-1-yl-6-methyl-4-(4-trifluoromethyl-phenyl)-pyridine]
Ki (rat mGlu2 receptor): 96 nM
melting point: 158 to 160 °C

Nc1ccc(-c2cn(-c3cc(C(F)(F)F)cc(-c4ccc(Cl)cc4)n3)cn2)cn1 [Example 56, 5-{1-[6-(4-Chloro-phenyl)-4-trifluoromethyl-pyridin-2-yl]-1H-imidazol-4-yl}-pyridin-2-ylamine]
Ki (rat mGlu2 receptor): 9 nM
melting point: 196 °C (dec.)

FC(F)(F)c1ccc(-c2cc(C(F)(F)F)cc(-c3cccc(-c4cccnc4)c3)n2)cc1 [Example 59, 2-(3-Pyridin-3-yl-phenyl)-4-trifluoromethyl-6-(4-trifluoromethyl-phenyl)-pyridine]
Ki (rat mGlu2 receptor): 58.3 nM
melting point: 164 to 166 °C

Nc1ccc(-c2ncn(-c3cc(C(F)(F)F)cc(-c4ccc(C(F)(F)F)cc4)n3)n2)cn1 [Example 277, 5-{1-[4-Trifluoromethyl-6-(4-trifluoromethyl-phenyl)-pyridin-2-yl]-1H-[1,2,4]triazol-3-yl}-pyridin-2-ylamine]
Ki (rat mGlu2 receptor): 71 nM

CC(C)(C)NS(=O)(=O)c1cccc(-c2cn(-c3cc(C(F)(F)F)cc(-c4ccc(C(F)(F)F)cc4)n3)cn2)c1 [Example 280, N-tert-Butyl-3-{1-[4-trifluoromethyl-6-(4-trifluoromethyl-phenyl)-pyridin-2-yl]-1H-imidazol-4-yl}-benzenesulfonamide]
Ki (rat mGlu2 receptor): 3 nM

Cc1cc(-c2ccc(C(F)(F)F)cc2)cc(-c2ccnc(-c3cccc([N+](=O)[O-])c3)n2)n1 [Example 322, 4-[6-Methyl-4-(4-trifluoromethyl-phenyl)-pyridin-2-yl]-2-(3-nitro-phenyl)-pyrimidine]
Ki (rat mGlu2 receptor): 9 nM

Cc1cc(-c2ccc(C(F)(F)F)cc2)cc(-c2ccnc(-c3cccc(NS(C)(=O)=O)c3)n2)n1 [Example 330, N-(3-{4-[6-Methyl-4-(4-trifluoromethyl-phenyl)-pyridin-2-yl]-pyrimidin-2-yl}-phenyl)-methanesulfonamide]
Ki (rat mGlu2 receptor): 4 nM

Cc1cc(-c2ccc(C(F)(F)F)cc2)cc(-c2cccc(-c3cccc(NS(=O)(=O)NC(=O)OC(C)(C)C)c3)n2)n1 [Example 334, N-(tert-Butoxycarbonyl)-N′-{3-[6′-methyl-4′-(4-trifluoromethyl-phenyl)-[2,2′]bipyridinyl-6-yl]-phenyl}-sulfamide]
Ki (rat mGlu2 receptor): 11 nM

Cc1cc(-c2ccc(C(F)(F)F)cc2)cc(-c2ccnc(-c3cccc(NS(N)(=O)=O)c3)n2)n1 [Example 338, N-(3-{4-[6-Methyl-4-(4-trifluoromethyl-phenyl)-pyridin-2-yl]-pyrimidin-2-yl}-phenyl)-sulfamide]
Ki (rat mGlu2 receptor): 1 nM

Cc1cc(-c2ccc(C(F)(F)F)cc2)cc(-c2cccc(-c3cccc(S(=O)(=O)O)c3)n2)n1 [Example 345, 3-[6′-Methyl-4′-(4-trifluoromethyl-phenyl)-[2,2′]bipyridinyl-6-yl]-benzenesulfonic acid]
Ki (rat mGlu2 receptor): 0.7 nM
